Laboratory results from ChEMBL document CHEMBL4118086, “Potential of PI3Kβ Inhibitors in the Treatment of Cancer and Other Diseases” (ACS Med Chem Lett, 2017).

What was measured:
[1] = biological target: Serine/threonine-protein kinase mTOR (Homo sapiens, UniProt P42345); assay: Binding affinity to wild-type human MTOR (L1382 to W2549 residues) expressed in mammalian expression system by KINOMEScan assay
[2] = biological target: T1, Phosphatidylinositol 4,5-bisphosphate 3-kinase catalytic subunit beta isoform (Homo sapiens, UniProt P42338); assay: Inhibition of PI3Kbeta in human PC3 cells assessed as reduction in AKT phosphorylation at S473 residue measured after 60 mins by ELISA; format: cell-based
T1 sequence (P42338 whole entry, canonical isoform): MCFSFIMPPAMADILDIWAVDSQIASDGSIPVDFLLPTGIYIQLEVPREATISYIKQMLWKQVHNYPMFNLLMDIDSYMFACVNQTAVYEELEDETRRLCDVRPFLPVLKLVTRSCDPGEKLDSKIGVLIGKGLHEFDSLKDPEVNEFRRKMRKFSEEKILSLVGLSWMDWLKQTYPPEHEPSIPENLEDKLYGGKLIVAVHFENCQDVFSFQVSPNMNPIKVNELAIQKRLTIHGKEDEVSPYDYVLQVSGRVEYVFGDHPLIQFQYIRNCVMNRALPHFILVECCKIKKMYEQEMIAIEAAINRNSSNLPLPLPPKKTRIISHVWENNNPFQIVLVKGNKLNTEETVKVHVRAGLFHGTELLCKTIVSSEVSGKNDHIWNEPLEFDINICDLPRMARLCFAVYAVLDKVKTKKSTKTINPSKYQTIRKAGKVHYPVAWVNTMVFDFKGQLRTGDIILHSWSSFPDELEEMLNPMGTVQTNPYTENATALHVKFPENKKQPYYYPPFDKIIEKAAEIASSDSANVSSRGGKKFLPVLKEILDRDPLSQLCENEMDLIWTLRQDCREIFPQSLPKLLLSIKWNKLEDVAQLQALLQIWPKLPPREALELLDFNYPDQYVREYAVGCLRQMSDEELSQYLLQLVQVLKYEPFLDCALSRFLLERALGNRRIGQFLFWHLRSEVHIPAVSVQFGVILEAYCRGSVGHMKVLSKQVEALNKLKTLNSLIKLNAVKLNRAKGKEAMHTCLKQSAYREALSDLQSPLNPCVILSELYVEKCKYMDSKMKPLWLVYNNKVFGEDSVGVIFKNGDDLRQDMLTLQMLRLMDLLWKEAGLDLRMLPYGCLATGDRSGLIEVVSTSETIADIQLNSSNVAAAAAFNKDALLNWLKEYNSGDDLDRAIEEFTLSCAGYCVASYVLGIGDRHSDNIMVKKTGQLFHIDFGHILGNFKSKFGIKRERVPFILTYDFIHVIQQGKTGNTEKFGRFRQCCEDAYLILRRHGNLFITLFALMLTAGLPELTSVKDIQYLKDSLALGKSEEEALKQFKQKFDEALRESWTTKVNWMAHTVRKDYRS

[3] = biological target: T1, Phosphatidylinositol 4,5-bisphosphate 3-kinase catalytic subunit beta isoform; assay: Inhibition of PI3Kbeta in human PC3 cells assessed as reduction in AKT phosphorylation at Thr308 residue measured after 60 mins by ELISA; format: cell-based
[4] = biological target: T1, Phosphatidylinositol 4,5-bisphosphate 3-kinase catalytic subunit beta isoform; assay: Binding affinity to wild-type human PIK3Cbeta (P118 to S1070 residues) expressed in mammalian expression system by KINOMEScan assay
[5] = biological target: Phosphatidylinositol 4,5-bisphosphate 3-kinase catalytic subunit alpha isoform (Homo sapiens, UniProt P42336); assay: Binding affinity to wild-type human PIK3Calpha (R108 to N1068 residues) expressed in mammalian expression system by KINOMEScan assay
Chain of Phosphatidylinositol 4,5-bisphosphate 3-kinase catalytic subunit alpha isoform (P42336 whole entry, the tested form may be a part, canonical isoform): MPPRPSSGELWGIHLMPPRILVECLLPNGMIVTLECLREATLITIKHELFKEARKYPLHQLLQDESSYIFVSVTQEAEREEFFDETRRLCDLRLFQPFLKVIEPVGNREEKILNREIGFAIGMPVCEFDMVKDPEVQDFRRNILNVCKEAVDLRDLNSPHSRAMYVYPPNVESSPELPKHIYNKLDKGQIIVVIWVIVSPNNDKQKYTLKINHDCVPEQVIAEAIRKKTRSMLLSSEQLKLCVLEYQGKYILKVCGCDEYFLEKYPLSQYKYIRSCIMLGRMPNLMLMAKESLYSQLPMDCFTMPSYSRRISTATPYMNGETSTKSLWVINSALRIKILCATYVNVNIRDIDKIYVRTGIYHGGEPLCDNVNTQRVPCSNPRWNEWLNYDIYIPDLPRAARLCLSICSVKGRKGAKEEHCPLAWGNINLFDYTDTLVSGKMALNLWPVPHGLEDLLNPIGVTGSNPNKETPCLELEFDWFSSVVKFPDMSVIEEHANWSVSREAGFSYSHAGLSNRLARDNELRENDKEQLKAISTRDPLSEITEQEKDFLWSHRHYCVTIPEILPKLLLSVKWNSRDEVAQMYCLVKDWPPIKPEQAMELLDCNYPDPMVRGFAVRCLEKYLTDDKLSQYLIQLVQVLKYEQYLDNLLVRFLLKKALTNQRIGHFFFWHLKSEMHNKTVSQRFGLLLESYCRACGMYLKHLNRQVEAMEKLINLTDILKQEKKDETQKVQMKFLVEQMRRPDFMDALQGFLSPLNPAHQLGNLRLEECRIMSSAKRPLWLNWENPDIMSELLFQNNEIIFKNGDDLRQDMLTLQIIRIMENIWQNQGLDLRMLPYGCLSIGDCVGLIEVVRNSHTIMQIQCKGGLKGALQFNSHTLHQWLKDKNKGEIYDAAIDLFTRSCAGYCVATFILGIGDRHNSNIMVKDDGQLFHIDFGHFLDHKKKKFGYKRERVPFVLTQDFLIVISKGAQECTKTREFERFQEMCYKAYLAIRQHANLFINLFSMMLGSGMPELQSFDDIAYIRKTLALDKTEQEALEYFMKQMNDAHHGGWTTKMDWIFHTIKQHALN

[6] = biological target: T2, Phosphatidylinositol 4,5-bisphosphate 3-kinase catalytic subunit delta isoform (Homo sapiens, UniProt O00329); assay: Binding affinity to wild-type human PIK3Cdelta (R108 to Q1044 residues) expressed in mammalian expression system by KINOMEScan assay
T2 sequence (O00329 whole entry): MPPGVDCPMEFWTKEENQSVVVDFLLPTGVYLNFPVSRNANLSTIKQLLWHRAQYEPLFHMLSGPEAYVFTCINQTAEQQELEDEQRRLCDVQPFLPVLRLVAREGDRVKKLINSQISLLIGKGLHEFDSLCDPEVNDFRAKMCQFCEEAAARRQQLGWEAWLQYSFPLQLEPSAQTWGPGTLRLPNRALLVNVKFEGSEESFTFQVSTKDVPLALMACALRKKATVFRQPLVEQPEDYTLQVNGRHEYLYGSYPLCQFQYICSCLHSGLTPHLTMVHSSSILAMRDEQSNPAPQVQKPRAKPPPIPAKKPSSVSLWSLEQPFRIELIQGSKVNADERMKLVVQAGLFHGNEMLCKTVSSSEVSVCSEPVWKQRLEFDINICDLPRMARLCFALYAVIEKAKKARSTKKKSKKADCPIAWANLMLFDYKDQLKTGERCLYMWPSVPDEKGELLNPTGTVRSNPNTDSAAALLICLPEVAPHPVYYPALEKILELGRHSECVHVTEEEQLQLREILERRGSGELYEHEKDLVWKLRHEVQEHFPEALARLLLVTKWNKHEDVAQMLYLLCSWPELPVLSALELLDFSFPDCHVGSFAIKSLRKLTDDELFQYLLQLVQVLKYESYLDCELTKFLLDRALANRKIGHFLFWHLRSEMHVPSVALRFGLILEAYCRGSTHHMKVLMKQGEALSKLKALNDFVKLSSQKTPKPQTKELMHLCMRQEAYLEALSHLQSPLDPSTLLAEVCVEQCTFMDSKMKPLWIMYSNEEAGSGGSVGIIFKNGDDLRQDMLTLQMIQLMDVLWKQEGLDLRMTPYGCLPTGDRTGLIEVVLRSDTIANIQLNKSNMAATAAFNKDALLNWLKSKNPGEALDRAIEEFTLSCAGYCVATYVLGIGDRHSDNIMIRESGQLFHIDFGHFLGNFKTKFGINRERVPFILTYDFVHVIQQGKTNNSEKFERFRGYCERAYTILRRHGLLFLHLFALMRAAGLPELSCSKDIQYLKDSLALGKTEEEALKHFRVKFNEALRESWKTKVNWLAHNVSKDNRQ

[7] = biological target: Phosphatidylinositol 4,5-bisphosphate 3-kinase catalytic subunit gamma isoform (Homo sapiens, UniProt P48736); assay: Binding affinity to wild-type human PIK3Cgamma (S144 to A1102 residues) expressed in mammalian expression system by KINOMEScan assay
Chain of Phosphatidylinositol 4,5-bisphosphate 3-kinase catalytic subunit gamma isoform (P48736 whole entry, the tested form may be a part, canonical isoform): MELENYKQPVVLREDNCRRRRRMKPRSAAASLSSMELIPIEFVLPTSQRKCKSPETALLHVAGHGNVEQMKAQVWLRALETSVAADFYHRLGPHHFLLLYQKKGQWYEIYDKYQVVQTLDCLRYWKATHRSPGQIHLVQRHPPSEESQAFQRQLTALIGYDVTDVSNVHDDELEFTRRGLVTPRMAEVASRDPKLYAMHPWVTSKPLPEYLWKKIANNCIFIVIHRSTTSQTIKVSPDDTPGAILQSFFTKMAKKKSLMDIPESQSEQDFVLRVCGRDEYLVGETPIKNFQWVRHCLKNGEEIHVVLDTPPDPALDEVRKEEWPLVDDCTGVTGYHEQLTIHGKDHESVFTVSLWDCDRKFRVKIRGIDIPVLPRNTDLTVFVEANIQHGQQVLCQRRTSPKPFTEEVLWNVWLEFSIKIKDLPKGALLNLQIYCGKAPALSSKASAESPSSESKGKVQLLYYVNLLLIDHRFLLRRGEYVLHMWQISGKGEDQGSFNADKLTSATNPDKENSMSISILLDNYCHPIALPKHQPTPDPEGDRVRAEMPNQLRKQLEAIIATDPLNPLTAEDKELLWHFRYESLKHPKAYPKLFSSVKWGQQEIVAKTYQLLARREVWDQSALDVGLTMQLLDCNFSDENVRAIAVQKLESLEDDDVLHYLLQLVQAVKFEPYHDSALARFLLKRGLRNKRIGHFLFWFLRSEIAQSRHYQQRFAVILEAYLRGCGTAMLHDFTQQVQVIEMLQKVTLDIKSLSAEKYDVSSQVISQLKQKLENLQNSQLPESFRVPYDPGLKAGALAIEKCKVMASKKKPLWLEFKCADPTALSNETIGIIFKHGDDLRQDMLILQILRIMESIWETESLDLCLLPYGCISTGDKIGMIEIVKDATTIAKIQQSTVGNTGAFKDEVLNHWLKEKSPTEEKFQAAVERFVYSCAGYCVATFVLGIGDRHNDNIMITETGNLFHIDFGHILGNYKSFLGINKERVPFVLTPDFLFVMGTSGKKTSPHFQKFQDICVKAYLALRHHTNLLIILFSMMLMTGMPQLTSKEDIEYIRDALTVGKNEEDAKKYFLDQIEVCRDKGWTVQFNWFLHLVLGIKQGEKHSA

| SMILES | Kd [1] [µM] | IC50 [2] [nM] | IC50 [3] [nM] | Kd [4] [nM] | Kd [5] [nM] | Kd [6] [nM] | Kd [7] [µM] |
| --- | --- | --- | --- | --- | --- | --- | --- |
| CC(Nc1cc(F)cc(F)c1)c1cc(C(=O)NCCN(C)C)cc2ncc(N3CCOCC3)nc12 (racemic) | > 30.2 | 6 | 3 |  |  |  |  |
| C[C@H](Nc1cccc(F)c1)c1cc(C(=O)NCCO)cc2ncc(N3CCOCC3)nc12 | > 30.2 | > 513 | > 513 |  |  |  |  |
| Cc1c(F)cccc1NCc1cc(C(=O)NCCN(C)C)cc2ncc(N3CCOCC3)nc12 | 17.8 | 9 | 9 | 0.2 | 1910 | 324 | 6.61 |
| C[C@@H](Nc1cccc(F)c1)c1cc(C(=O)NCCO)cc2ncc(N3CCOCC3)nc12 | 17.1 | 49 | 44 | 3 | 1100 | 324 | 3.41 |
| C[C@H](Nc1cc(F)cc(F)c1)c1cc(C(=O)NCCN(C)C)cc2ncc(N3CCOCC3)nc12 | > 30.2 | 331 | 148 |  |  |  |  |
| C[C@@H]1CN(C(=O)c2cc(C3CCCN3c3cc(F)cc(F)c3)c3nc(N4CCOCC4)cnc3c2)C[C@H](C)N1 (mixture of isomers) | > 30.2 | 7 | 5 | 0.2 | 14 | 7 | 0.214 |
| CN(C)C(=O)c1cc([C@H]2CCCN2c2cc(F)cc(F)c2)c2nc(N3CCOCC3)cnc2c1 | 28.2 | 2 | 3 | 0.3 | 34 | 15 | 0.313 |
| C[C@@H](Nc1cc(F)cc(F)c1)c1cc(C(=O)NCCN(C)C)cc2ncc(N3CCOCC3)nc12 |  | 2 | 2 |  |  |  |  |
| CN(C)C(=O)c1cc(C2CCCN2c2cc(F)cc(F)c2)c2nc(N3CCOCC3)cnc2c1 (racemic) | > 30.2 | 4 | 1.35 |  |  |  |  |
| CN(C)C(=O)c1cc([C@@H]2CCCN2c2cc(F)cc(F)c2)c2nc(N3CCOCC3)cnc2c1 | > 30.2 | > 513 | > 513 |  |  |  | > 30.2 |
| CNCCNC(=O)c1cc(C(C)Nc2cccc(F)c2)c2nc(N3CCOCC3)cnc2c1 (racemic) |  | 7 | 6 |  |  |  |  |
